Tests used:
Adenosine receptor A1 [1] = target: T1, Adenosine receptor A1 (Rattus norvegicus, UniProt P25099); assay: Activity at Adenosine A1 receptor of rat atria; assay type: functional
T1 sequence (P25099 whole entry): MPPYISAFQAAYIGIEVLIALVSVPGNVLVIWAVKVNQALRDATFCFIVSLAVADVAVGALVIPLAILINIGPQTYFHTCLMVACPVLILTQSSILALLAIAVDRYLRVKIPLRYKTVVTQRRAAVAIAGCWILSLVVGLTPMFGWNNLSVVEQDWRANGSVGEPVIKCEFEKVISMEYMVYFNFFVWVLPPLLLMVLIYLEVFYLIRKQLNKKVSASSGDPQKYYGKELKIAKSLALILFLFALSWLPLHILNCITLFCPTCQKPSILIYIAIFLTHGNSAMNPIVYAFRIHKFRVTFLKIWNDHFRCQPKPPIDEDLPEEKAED

Adenosine receptor A1 [2] = target: T1, Adenosine receptor A1
Description: Displacement of [3H]CHA from Adenosine A1 receptor of rat brain

Adenosine receptor A2a [3] = target: T2, Adenosine receptor A2a (Rattus norvegicus, UniProt P30543)
T2 sequence (P30543 whole entry): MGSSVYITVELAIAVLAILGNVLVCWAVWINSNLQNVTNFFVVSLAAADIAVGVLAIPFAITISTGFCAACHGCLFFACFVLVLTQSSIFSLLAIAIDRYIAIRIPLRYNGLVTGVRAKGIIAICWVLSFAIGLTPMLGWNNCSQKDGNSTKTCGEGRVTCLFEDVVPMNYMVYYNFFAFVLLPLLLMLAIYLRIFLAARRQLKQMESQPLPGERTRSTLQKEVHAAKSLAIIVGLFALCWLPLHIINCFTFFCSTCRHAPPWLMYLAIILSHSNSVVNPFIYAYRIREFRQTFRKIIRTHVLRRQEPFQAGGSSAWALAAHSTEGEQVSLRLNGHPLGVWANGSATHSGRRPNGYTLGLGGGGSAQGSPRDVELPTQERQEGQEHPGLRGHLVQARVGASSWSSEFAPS
Description: Functional activity at Adenosine A2A receptor as vasorelaxation of rat aorta

Adenosine receptor A2a [4] = target: T2, Adenosine receptor A2a; remark: listed apart in the source

SMILES	EC50 (Adenosine receptor A1 [1])	Ki (Adenosine receptor A1 [2])	EC50 (Adenosine receptor A2a [3])	Ki (Adenosine receptor A2a [4])
Cc1ccc(/C=N/Nc2nc(N)c3ncn(C4O[C@H](CO)[C@@H](O)[C@H]4O)c3n2)cc1 (some centres undefined)	> 10000 nM	1770 nM	747 nM	29 nM
CN(C)c1ccc(/C=C/C=N/Nc2nc(N)c3ncn([C@@H]4O[C@H](CO)[C@@H](O)[C@H]4O)c3n2)cc1	866 nM	101 nM	728 nM	170 nM
Nc1nc(N/N=C/C=C(c2ccccc2)c2ccccc2)nc2c1ncn2[C@@H]1O[C@H](CO)[C@@H](O)[C@H]1O	> 1860 nM	64 nM	704 nM	> 1000 nM
Nc1nc(N/N=C/C=C/c2ccco2)nc2c1ncn2[C@@H]1O[C@H](CO)[C@@H](O)[C@H]1O	4340 nM	1670 nM	800 nM	83 nM
COc1ccc(/C=C/C=N/Nc2nc(N)c3ncn([C@@H]4O[C@H](CO)[C@@H](O)[C@H]4O)c3n2)cc1	> 10000 nM	425 nM	677 nM	59 nM
Nc1nc(N/N=C/c2ccco2)nc2c1ncn2[C@@H]1O[C@H](CO)[C@@H](O)[C@H]1O	> 10000 nM	1850 nM	195 nM	42 nM
Nc1nc(N/N=C/C=C/c2ccc([N+](=O)[O-])cc2)nc2c1ncn2[C@@H]1O[C@H](CO)[C@@H](O)[C@H]1O	> 10000 nM	524 nM	482 nM	23 nM

More lines, now with the values ahead:

EC50 (Adenosine receptor A1 [1])	Ki (Adenosine receptor A1 [2])	EC50 (Adenosine receptor A2a [3])	Ki (Adenosine receptor A2a [4])	SMILES
> 10000 nM	1050 nM	269 nM	38 nM	Nc1nc(N/N=C/C=C/c2ccccc2)nc2c1ncn2[C@@H]1O[C@H](CO)[C@@H](O)[C@H]1O
> 10000 nM	935 nM	638 nM	54 nM	Nc1nc(N/N=C/C=C/c2ccccc2[N+](=O)[O-])nc2c1ncn2[C@@H]1O[C@H](CO)[C@@H](O)[C@H]1O
1970 nM	264 nM	529 nM	384 nM	COc1ccccc1/C=C/C=N/Nc1nc(N)c2ncn([C@@H]3O[C@H](CO)[C@@H](O)[C@H]3O)c2n1
4890 nM	545 nM	281 nM	27 nM	COc1cc(/C=C/C=N/Nc2nc(N)c3ncn([C@@H]4O[C@H](CO)[C@@H](O)[C@H]4O)c3n2)ccc1O
